“Also recorded” adds a separate entry of the source.

These results are taken from patent publication US20050192273A1, “Therapy for psychoses combining an atypical antipsychotic and an mglu2/3 receptor agonist” (priority 2002, published 2005).

Test [1] relates to PCP-induced motor activation (ambulations). In words: PCP-induced motor activation (ambulations) in rats. In kind it is in vivo, rat. To be noted: PCP 5 mg/kg s.c., 60 min. How it is done:
In the present experiments, studies were performed in accordance with Eli Lilly and Company animal care and use policies. Male Sprague-Dawley rats (250-300 g) were group-housed (maximum of seven rats per cage) under standard laboratory conditions with ad libitum access to food and water (12 h light/dark cycle), for at least 1 day before use.
Activity Assessment compounds were tested against PCP-induced motor activation (ambulations) in rats. Behavioral parameters were monitored in transparent, shoe-box cages that measured 45×25×20 cm, with a 1 cm depth of wood chips on the cage floor and a metal grill on top of the cage. Rectangular photocell monitors (Hamilton Kinder, Poway, Calif.) with a bank of […] (8×4 formation) surrounded each test cage. A lower rack of photocell beams was positioned 5 cm above the cage floor to enable detection of the location of the animals body, while an upper bank positioned 10 cm above the first tabulated rearing activity. Ambulations (locomotor activity) and rearing were recorded by the computer and stored for each test session as discussed in Male Sprague-Dawley rats were generally food-fasted 12-18 hours prior to the experiment. In some experiments, rats were allowed food and water ad libitum prior to the experiment. On the test day animals were placed in the test cage for a 30 min habituation period before to testing to allow for acclimation to the test cage environment. Following this habituation period, animals were administered challenges of phencyclidine (PCP) (5 mg/kg s.c.) or 0.9% NaCl vehicle (1 ml/kg) and behavioral assessment began immediately following their administration. Animals were monitored over a 60 min period in all instances. Test drugs or vehicle were administered at various pretreatment times prior to the PCP challenge.
Statistical analysis. Statistical Analysis were carried out using the GraphPad PRISM statistical/graphing package (GraphPad, SanDiego, Calif.). Data were analyzed using a one-way analysis of variance (ANOVA) and post-hoc comparisons were performed using Dunnett's multiple comparisons test.
The rats were tested 30 minutes post-injection of the test compound or vehicle. Behaviors were monitored over a 60 minute time period following S.C. injection of PCP or vehicle. Data (mean±S.E.) are presented as the total number of behaviors expressed during the timer period.

Another test has as its target T1, human mGlu2 (Homo sapiens, UniProt Q14416).
T1 construct: expressed in transfected cells; host or cells: RGT cells (cells expressing the rat glutamate transporter)
The conditions noted are these: decrease forskolin-stimulated cAMP, mean ± S.E.M., read-out: EC50 (nM) (Agonist Activity); cited from earlier work.

Another test deals with T2, human mGlu3 (Homo sapiens, UniProt Q14832).
T2 construct: expressed in transfected cells; host or cells: RGT cells (cells expressing the rat glutamate transporter)
T2 sequence (Q14832 23-879): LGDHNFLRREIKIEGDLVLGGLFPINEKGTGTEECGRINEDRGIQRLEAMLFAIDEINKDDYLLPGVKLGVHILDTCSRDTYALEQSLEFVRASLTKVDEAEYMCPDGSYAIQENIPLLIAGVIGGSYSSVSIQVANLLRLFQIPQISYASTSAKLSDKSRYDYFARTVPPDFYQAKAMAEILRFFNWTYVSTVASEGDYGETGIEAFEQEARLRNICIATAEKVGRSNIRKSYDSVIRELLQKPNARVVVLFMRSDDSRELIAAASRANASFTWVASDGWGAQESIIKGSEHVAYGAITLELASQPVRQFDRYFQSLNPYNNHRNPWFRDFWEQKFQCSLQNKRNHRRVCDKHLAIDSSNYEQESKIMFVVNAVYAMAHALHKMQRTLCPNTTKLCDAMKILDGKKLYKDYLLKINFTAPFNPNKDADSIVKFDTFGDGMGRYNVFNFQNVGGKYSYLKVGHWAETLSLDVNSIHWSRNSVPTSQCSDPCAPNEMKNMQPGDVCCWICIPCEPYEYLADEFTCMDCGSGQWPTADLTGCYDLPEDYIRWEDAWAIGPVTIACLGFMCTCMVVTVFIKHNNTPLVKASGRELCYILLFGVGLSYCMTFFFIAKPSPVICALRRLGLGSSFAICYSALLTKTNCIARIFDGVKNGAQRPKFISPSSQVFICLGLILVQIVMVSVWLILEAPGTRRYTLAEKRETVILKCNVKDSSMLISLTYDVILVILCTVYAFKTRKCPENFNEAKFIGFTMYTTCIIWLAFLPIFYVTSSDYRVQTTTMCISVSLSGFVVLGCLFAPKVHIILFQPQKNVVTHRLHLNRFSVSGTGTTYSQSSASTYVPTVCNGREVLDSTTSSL
The conditions noted are these: decrease forskolin-stimulated cAMP, mean ± S.E.M., read-out: EC50 (nM) (Agonist Activity); cited from earlier work.

The next test concerns the target T3, human mGlu4 (Homo sapiens, UniProt Q14833).
T3 construct: expressed in transfected cells; host or cells: RGT cells (cells expressing the rat glutamate transporter)
To be noted: decrease forskolin-stimulated cAMP, cited from earlier work.

In the next test the target is T4, human mGlu7 (Homo sapiens, UniProt Q14831).
T4 construct: expressed in transfected cells; host or cells: RGT cells (cells expressing the rat glutamate transporter)
T4 sequence (Q14831 35-915): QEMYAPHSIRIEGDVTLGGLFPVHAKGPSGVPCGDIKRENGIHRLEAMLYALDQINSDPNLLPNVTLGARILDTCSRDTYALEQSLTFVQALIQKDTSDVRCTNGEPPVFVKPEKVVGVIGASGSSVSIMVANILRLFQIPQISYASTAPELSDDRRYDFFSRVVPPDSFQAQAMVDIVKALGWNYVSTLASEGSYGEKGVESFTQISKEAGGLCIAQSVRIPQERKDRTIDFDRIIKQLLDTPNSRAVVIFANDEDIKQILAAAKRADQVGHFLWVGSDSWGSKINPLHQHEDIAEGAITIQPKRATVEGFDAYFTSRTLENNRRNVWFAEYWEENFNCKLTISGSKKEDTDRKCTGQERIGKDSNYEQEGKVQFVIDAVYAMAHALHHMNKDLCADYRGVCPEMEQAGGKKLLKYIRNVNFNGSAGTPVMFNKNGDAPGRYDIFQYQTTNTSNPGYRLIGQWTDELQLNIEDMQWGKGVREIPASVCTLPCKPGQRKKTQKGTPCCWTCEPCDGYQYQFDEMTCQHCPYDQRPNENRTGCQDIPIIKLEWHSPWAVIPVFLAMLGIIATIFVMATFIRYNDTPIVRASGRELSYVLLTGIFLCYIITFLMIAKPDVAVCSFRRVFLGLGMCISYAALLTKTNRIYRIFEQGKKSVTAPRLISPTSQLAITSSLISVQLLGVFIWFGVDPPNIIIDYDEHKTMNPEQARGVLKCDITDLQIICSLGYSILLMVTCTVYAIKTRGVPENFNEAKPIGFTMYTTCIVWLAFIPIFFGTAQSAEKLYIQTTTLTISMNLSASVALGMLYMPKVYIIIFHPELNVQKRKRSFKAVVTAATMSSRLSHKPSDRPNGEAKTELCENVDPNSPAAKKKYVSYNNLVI
To be noted: decrease forskolin-stimulated cAMP, cited from earlier work.

Another test concerns the target T5, human mGlu8 (Homo sapiens, UniProt O00222).
T5 construct: expressed in transfected cells; host or cells: RGT cells (cells expressing the rat glutamate transporter)
To be noted: decrease forskolin-stimulated cAMP, mean ± S.E.M., read-out: EC50 (nM) (Agonist Activity); cited from earlier work.

The next test addresses T6, human mGlu1 (Homo sapiens, UniProt Q13255).
T6 construct: expressed in transfected cells; host or cells: RGT cells (cells expressing the rat glutamate transporter)
To be noted: increase PI hydrolysis, cited from earlier work.

Another test has as its target T7, human mGlu5 (Homo sapiens, UniProt P41594).
T7 construct: expressed in transfected cells; host or cells: RGT cells (cells expressing the rat glutamate transporter)
To be noted: increase PI hydrolysis, cited from earlier work.

[2] abbreviates: read-out: EC50 (nM) (Agonist Activity).
[3] abbreviates: read-out: IC50 (nM) (Antagonist Activity).

T6 sequence (Q13255 19-1194): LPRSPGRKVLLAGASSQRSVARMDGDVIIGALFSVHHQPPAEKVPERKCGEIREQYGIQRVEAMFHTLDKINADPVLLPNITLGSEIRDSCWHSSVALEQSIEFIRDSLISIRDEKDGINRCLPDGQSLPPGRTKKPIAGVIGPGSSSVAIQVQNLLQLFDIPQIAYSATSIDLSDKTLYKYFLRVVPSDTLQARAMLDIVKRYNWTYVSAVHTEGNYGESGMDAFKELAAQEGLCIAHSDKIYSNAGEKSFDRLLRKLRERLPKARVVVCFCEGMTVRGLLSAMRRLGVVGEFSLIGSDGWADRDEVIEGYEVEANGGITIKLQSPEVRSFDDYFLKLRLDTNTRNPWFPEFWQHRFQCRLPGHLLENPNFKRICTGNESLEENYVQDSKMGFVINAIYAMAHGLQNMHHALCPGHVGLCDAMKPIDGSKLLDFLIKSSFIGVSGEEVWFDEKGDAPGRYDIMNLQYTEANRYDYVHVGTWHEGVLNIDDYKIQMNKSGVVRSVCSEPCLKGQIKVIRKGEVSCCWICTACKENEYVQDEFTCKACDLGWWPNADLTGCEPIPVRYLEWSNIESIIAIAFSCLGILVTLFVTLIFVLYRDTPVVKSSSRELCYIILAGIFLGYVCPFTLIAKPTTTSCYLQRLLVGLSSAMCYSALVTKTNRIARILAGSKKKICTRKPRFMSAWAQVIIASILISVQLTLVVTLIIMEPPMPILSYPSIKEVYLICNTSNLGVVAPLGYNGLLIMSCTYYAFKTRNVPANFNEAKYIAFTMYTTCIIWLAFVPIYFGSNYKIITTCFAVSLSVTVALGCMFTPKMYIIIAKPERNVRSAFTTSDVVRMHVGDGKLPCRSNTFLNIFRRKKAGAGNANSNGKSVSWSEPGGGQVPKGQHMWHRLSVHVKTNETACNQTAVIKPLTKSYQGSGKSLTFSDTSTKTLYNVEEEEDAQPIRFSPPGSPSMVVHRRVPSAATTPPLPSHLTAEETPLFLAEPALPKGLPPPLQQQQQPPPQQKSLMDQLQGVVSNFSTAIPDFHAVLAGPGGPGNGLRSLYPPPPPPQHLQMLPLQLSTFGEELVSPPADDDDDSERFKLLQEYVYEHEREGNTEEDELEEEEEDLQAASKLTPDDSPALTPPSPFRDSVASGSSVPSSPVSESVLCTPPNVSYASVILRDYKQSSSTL
T3 sequence (Q14833 33-912): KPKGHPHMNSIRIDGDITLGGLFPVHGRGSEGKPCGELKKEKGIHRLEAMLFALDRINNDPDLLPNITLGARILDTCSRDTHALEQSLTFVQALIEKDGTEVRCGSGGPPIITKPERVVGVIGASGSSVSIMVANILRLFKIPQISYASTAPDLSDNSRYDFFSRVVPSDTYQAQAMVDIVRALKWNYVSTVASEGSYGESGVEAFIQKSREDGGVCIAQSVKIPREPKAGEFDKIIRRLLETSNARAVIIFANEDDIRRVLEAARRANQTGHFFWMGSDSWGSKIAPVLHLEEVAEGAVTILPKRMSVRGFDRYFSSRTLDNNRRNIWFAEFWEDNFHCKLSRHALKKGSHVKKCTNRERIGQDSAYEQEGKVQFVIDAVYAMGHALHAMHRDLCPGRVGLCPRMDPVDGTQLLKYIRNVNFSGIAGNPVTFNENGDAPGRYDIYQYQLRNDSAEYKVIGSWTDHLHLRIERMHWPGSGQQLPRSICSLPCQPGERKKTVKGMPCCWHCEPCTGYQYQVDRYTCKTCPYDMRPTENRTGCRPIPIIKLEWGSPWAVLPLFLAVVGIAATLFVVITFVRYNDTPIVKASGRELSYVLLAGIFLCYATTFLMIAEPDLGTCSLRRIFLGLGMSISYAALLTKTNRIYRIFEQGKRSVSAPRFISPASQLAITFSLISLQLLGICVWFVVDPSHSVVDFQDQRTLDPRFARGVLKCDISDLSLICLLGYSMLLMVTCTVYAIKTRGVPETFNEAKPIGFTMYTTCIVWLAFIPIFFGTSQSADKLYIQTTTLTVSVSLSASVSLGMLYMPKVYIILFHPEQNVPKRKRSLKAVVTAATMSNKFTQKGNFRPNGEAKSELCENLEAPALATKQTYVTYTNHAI
T7 sequence (P41594 21-1180 isoform P41594-2 limits assumed): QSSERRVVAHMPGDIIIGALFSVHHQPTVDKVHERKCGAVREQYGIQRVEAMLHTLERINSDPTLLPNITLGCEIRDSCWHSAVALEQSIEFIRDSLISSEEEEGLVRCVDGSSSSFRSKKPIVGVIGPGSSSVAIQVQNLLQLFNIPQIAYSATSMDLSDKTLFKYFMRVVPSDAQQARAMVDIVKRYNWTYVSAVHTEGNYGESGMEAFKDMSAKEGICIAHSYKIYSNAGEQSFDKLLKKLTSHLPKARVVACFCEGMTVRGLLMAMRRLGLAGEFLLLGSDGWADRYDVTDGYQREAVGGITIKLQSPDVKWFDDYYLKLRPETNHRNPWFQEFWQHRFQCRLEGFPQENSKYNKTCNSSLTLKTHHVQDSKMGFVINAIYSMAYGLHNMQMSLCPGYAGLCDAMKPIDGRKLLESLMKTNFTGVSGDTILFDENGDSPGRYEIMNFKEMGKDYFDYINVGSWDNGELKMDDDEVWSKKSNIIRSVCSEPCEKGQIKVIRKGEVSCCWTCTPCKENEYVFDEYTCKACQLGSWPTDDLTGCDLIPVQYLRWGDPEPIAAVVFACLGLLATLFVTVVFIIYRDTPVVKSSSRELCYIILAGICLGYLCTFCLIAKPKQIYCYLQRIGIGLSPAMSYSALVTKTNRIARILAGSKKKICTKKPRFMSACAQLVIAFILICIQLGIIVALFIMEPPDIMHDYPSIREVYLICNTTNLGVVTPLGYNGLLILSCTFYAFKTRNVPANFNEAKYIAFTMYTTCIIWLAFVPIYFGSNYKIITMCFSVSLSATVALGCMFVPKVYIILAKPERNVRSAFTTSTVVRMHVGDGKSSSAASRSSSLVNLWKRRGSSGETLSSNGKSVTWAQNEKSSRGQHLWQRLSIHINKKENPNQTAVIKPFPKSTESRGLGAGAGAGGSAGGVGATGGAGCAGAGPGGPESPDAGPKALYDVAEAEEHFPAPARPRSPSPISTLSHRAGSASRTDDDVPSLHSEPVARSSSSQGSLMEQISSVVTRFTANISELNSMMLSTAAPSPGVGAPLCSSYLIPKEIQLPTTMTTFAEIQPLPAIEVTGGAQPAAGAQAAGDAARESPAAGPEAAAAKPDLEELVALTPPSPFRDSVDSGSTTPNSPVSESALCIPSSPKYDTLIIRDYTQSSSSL

In general, EC50 refers to the concentration at which the effect is half-maximal. By IC50 is commonly meant the concentration at which inhibition is half-maximal. On to `NC1(C(=O)O)CCC2C(C(=O)O)C21` (single isomer, unassigned; (+)) [LY354740, (+)-2-aminobicyclo[3.1.0]hexane-2,6-dicarboxylic acid], for which the “effect on PCP-induced ambulations” value in test [1] (single agent 10 mg/kg) is reported as “statistically insignificant effect”. The EC50 at human mGlu2 was 5.1 ± 0.3 nM; on human mGlu3, 24.3 ± 0.5 nM; at human mGlu4 (setting [2]), more than 100000 nM; on human mGlu7 (setting [2]), more than 100000 nM; at human mGlu8 it was 36000 nM; at human mGlu1 (setting [2]) it was more than 100000 nM. Besides, the EC50 on human mGlu5 (setting [2]) was more than 100000 nM. The concentration for half-maximal inhibition (IC50) at human mGlu4 (setting [3]), on human mGlu7 (setting [3]), on human mGlu1 (setting [3]) and at human mGlu5 (setting [3]) was more than 100000 nM in each case.

On to `N[C@@]1(C(=O)O)CO[C@H]2[C@H](C(=O)O)[C@H]21` [LY379268, 1R,4R,5S,6R-4-amino-(2-oxabicyclo[3.1.0]hexane)-4,6-dicarboxylic acid], for which the “effect on PCP-induced ambulations” value in test [1] (single agent 1 mg/kg) is “smaller and statistically insignificant effect”.

For the molecule `Cc1cc2c(s1)Nc1ccccc1N=C2N1CCN(C)CC1` [Olanzapine, 2-methyl-4-(4-methyl-1-piperazinyl)-10H-thieno[2,3-b][1,5]benzodiazepine, reference compound], in test [1] (single agent 1 mg/kg), the “effect on PCP-induced ambulations” value was “significant impact; also recorded: minimal impact”.

As for `N[C@]1(C(=O)O)C[C@H](F)[C@@H]2[C@@H](C(=O)O)[C@@H]21` [LY459477, (1S,2R,4S,5S,6S)-2-amino-4-fluorobicyclo[3.1.0]hexane-2,6-dicarboxylic acid], the “effect on PCP-induced ambulations” value in test [1] (single agent 1 mg/kg) is on record as “relatively small impact; also recorded: statistically insignificant effect”.
